The source of these data is patent publication US9643964B2, “3-(2-aminopyrimidin-4-yl)-5-(3-hydroxypropynyl)-1H-pyrrolo[2,3-C]pyridine derivatives as NIK inhibitors for the treatment of cancer” (Janssen Pharmaceutica NV, priority 2013, dated 2017).

In assay [1] the target is T1, Recombinant Human NF-kappaB-Inducing Kinase (NIK/MAP3K14) (Homo sapiens, UniProt Q99558). As to the kind of experiment: Biological Assay A2: inhibition of auto-phosphorylation of recombinant human NIK/MAP3K14 (AlphaScreen). It counts as biochemical. The conditions noted are these: auto-phosphorylation; averaged over all measurements on all batches; read-out: αscreen IC50. Put shortly: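 AlphaScreen readout of anti-phospho-IKK Ser176/180 signal after 1 h, 25° C. incubation of 0.2 nM GST-NIK with compound and 25 microM ATP (Tris pH 7.5 buffer, MgCl2, 1% DMSO final). IC50 from sigmoidal fit of blank-corrected % inhibition against Log10 concentration.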
T1 sequence (Q99558 whole entry): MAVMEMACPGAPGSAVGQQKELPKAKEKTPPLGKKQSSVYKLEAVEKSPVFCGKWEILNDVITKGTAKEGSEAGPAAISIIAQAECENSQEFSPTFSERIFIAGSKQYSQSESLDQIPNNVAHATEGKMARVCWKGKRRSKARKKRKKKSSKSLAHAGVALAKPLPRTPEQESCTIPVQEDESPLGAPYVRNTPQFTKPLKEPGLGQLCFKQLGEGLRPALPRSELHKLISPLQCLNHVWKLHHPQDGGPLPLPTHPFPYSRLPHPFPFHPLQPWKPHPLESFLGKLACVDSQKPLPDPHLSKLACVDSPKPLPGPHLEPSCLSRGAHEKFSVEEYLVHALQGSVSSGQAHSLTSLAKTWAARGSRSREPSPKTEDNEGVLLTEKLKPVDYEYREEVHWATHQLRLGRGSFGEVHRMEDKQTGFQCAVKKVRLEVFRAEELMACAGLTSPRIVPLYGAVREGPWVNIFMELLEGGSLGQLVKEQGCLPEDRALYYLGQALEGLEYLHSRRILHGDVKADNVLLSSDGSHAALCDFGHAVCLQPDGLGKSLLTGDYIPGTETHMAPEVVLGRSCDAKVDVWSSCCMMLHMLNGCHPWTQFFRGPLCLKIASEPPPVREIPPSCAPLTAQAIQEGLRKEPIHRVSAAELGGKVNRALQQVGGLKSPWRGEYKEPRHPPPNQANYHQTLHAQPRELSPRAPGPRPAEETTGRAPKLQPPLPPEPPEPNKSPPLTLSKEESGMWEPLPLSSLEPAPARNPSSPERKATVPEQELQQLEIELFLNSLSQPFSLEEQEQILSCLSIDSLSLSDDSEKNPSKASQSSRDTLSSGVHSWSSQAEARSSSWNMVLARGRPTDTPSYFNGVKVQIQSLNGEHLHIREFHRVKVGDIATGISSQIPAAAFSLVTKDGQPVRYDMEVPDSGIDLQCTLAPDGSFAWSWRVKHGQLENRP
In general terms: In Alpha technology, singlet oxygen from a donor bead excites a nearby acceptor bead.

A further assay concerns L-363 cells. As to the kind of experiment: Biological Assay C: antiproliferative activity on L-363 cells (CellTiter-Glo). The settings on record: Homo sapiens, L-363, 72 h, 72 hr treatment; averaged values. It counts as cell-based, human. The method in brief: (§1)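 Luminescent ATP signal (CellTiter-Glo) measures growth of myeloma cells following a 72 h compound treatment. Values for the time-zero blank are subtracted, and each mean of duplicate wells is given as percentage of the no-drug control.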
On the technique in general: Cellular ATP, detected with luciferase, serves as a proxy for viable cell number.

Assay [2] deals with P-IKKα levels in L363 cells. As to the kind of experiment: Biological Assay B: effect of compounds on P-IKKα levels in L363 cells. It counts as cell-based. The conditions noted are these: Homo sapiens, L-363, averaged values, read-out: IKKα Cellular IC50. Put shortly: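 L363 cells pre-incubated 24 h with 1 μg/ml stock BAFF, then treated 2 h with compounds (8-point, 1:3 dilutions, 1% DMSO) at 37° C; P-IKKα in lysates measured by sandwich immunoassay. Blank (10 μM ADS125117) subtracted; IC50 from sigmoidal fit of % inhibition of MG132/BAFF control.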

The subject of the next assay is JJN-3 cells. As to the kind of experiment: Biological Assay C: antiproliferative activity on JJN-3 cells (CellTiter-Glo). It counts as cell-based, human. The conditions noted are these: Homo sapiens, JJN-3, 72 h, 72 hr treatment; averaged values. The method in brief: as §1
Assay [3] has as its target T1, Recombinant Human NF-kappaB-Inducing Kinase (NIK/MAP3K14). The assay is described as follows: Biological Assay A: inhibition of recombinant human NIK/MAP3K14 activity (MBP phosphorylation, Mesoscale). It counts as biochemical. The conditions noted are these: averaged over all measurements on all batches; read-out: Biochemical (MSD MBP) IC50. The method in brief: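 10 nM NIK with 25 μM ATP on MBP-coated plates in Tris pH 7.5 buffer with MgCl2, DTT and Na3VO4 and 1% DMSO, for 1 h at 25° C. Phospho-MBP was detected by anti-phospho-MBP and Sulfotag electrochemiluminescence; after blank subtraction, IC50 came from a sigmoidal fit of % inhibition.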

A further assay relates to LP-1 cells. The assay is described as follows: Biological Assay C: antiproliferative activity on LP-1 cells (CellTiter-Glo). It counts as cell-based, human. The settings on record: Homo sapiens, LP-1, 72 h, 72 hr treatment; averaged values. Put shortly:
as §1

With `CC(C)(O)C#Cc1cc2c(-c3ccnc(N)n3)cn(CCN3CCOCC3)c2cn1` [Compound 7], the IC50 in assay [1] is 210 nM; in assay [2], 540 nM; in assay [3], 15 nM. For the same compound, the EC50 with L-363 cells was 1900 nM; in the assay with JJN-3 cells, 1900 nM; in the assay on LP-1 cells, 3200 nM.
Take `CC(C)(O)Cn1cc(-c2ccnc(N)n2)c2cc(C#CC3(O)CC3)ncc21` [Compound 22]: the results for the IC50 in assay [1], in assay [2] and in assay [3] were 9 nM, 75 nM and 20 nM, respectively. For the same compound, the EC50 in the assay with L-363 cells was found to be 190 nM; in the assay on JJN-3 cells, 280 nM; with LP-1 cells, 1600 nM.
For `COCCn1cc(-c2nc(N)ncc2Cl)c2cc(C#CC(C)(O)c3nccs3)ncc21` (stereo not drawn) [Compound 20], the IC50 in assay [1] was found to be 15 nM; in assay [2] it was 30 nM; in assay [3], 9.4 nM. Besides, the EC50 in the assay on L-363 cells turned out to be 5000 nM; in the assay on JJN-3 cells it was 1000 nM; with LP-1 cells, 11000 nM.
Consider `CC(C)(O)C#Cc1cc2c(-c3ccnc(N)n3)cn(CCCN3CC(=O)NC3=O)c2cn1` [Compound 117], for which the IC50 in assay [1] was found to be 14 nM; in assay [2], 3400 nM; in assay [3], 100 nM. The EC50 in the assay with L-363 cells was 9000 nM; with JJN-3 cells it was 3300 nM; with LP-1 cells, above 10000 nM.
For `CNC(=O)CCn1cc(-c2ccnc(N)n2)c2cc(C#CC(C)(C)O)ncc21` [Compound 49], the results for the IC50 in assay [1], in assay [2] and in assay [3] were 360 nM, 5900 nM and 150 nM, respectively. The EC50 was above 10000 nM in the assay on L-363 cells, 32000 nM in the assay on JJN-3 cells and above 10000 nM in the assay on LP-1 cells.
Take `CCC(C)(O)C#Cc1cc2c(-c3ccnc(N)n3)cn(CC(C)(C)O)c2cn1` (stereo not drawn) [Compound 43]: the IC50 in assay [1] is 38 nM; in assay [2] it was 280 nM; in assay [3], 29 nM. The EC50 with L-363 cells was 4100 nM; in the assay with JJN-3 cells, 650 nM; in the assay on LP-1 cells, above 10000 nM.
As for `CC(C)(O)C#Cc1cc2c(-c3ccnc(N)n3)cn(C3COC3)c2cn1` [Compound 65], the IC50 in assay [1] came to 54 nM; in assay [2], 140 nM; in assay [3], 15 nM. In addition, the EC50 in the assay on L-363 cells is 400 nM; in the assay with JJN-3 cells, 470 nM; in the assay with LP-1 cells, 7000 nM.
Consider `CC(C)n1cc(-c2nc(N)ncc2Cl)c2cc(C#CC3(O)CCCC3)ncc21` [Compound 19], for which the IC50 in assay [1] amounted to 16 nM; in assay [2] it was 18 nM; in assay [3], 5.3 nM. Also, the EC50 came to 430 nM in the assay with L-363 cells, 160 nM in the assay with JJN-3 cells and 1200 nM with LP-1 cells.
Turning to `CC(C)n1cc(-c2ccnc(N)n2)c2cc(C#CC(C)(C)O)ncc21` [Compound 15], the IC50 in assay [1] was 12 nM; in assay [2], 16 nM; in assay [3], 4.8 nM. For the same compound, the EC50 with L-363 cells is 44 nM; in the assay on JJN-3 cells, 120 nM; with LP-1 cells, 370 nM.
On to `COCCNC(=O)c1c(-c2ccnc(N)n2)c2cc(C#CC(C)(C)O)ncc2n1C` [Compound 69], for which the IC50 in assay [1] is 89 nM; in assay [2], 600 nM; in assay [3], 250 nM. The EC50 turned out to be 870 nM with L-363 cells, 1800 nM with JJN-3 cells and 16000 nM in the assay with LP-1 cells.
For `CC(C)(O)C#Cc1cc2c(-c3ccnc(N)n3)cn(CC3CCOC3)c2cn1` (stereo not drawn) [Compound 6], the IC50 in assay [1] amounted to 11 nM; in assay [2] it was 68 nM; in assay [3], 2.3 nM. Also, the EC50 with L-363 cells is 790 nM; in the assay with JJN-3 cells, 860 nM; in the assay with LP-1 cells, 3000 nM.
For `CC(C)(O)C#Cc1cc2c(-c3nc(N)ncc3F)cn(CC(C)(C)O)c2cn1` [Compound 64], the figures for the IC50 in assay [1], in assay [2] and in assay [3] were 29 nM, 20 nM and 5.2 nM, respectively. Moreover, the EC50 stood at 51 nM in the assay with L-363 cells, 81 nM in the assay on JJN-3 cells and 2000 nM in the assay with LP-1 cells.
`CC(C)n1cc(-c2ccnc(N)n2)c2cc(C#CC3(O)CCCC3)ncc21` [Compound 18]: the IC50 in assay [1] worked out at 8 nM; in assay [2] it was 47 nM; in assay [3] it was 3.7 nM. In addition, the values for the EC50 with L-363 cells, in the assay with JJN-3 cells and in the assay on LP-1 cells were 450 nM, 340 nM and 1500 nM, respectively.

By IC50 is commonly meant the concentration needed to halve the response being measured. The term EC50 denotes the concentration needed to bring the measured effect to its halfway point. Higher therefore signals weaker potency.
